ChEMBL document CHEMBL1148089, “Inhibitors of protein tyrosine kinase pp60v-src: sterol sulfates from the brittle star Ophiarachna incrassata” (J Nat Prod, 1994)
pIC50: −log10 of the molar value.

Assay: Inhibition of Rous sarcoma virus v-Src

Structure (SMILES)	pIC50
CC(C)CCC[C@@H](COS(=O)(=O)O)[C@H]1CC[C@H]2[C@@H]3CC[C@@H]4[C@H](O)[C@H](OS(=O)(=O)O)CC[C@]4(C)[C@H]3[C@@H](O)C[C@]12C	4.21
CC(C)CCC[C@@H](COS(=O)(=O)O)[C@H]1CC[C@H]2[C@@H]3CC=C4C[C@H](OS(=O)(=O)O)CC[C@]4(C)[C@H]3CC[C@]12C	4.51
C[C@@]12CCC(=O)c3coc(c31)C(=O)c1cc3c(O)ccc(O)c3cc12 [HELENAQUINOL]	6.22

Results, then the compound that gave them:

pIC50	Structure (SMILES)
4.92	CC(CCC[C@@H](C)[C@H]1CC[C@H]2[C@@H]3CC=C4C[C@H](OS(=O)(=O)O)[C@@H](OS(=O)(=O)O)C[C@]4(C)[C@H]3CC[C@]12C)COS(=O)(=O)O (some centres not stated)
4.96	CC(CCC[C@@H](C)[C@H]1CC[C@H]2[C@@H]3CC[C@H]4C[C@H](OS(=O)(=O)O)[C@@H](OS(=O)(=O)O)C[C@]4(C)[C@H]3CC[C@]12C)COS(=O)(=O)O (some centres not stated)
4.19	CC(C)CCC[C@@H](COS(=O)(=O)O)[C@H]1CC[C@H]2[C@@H]3CC=C4C[C@H](OS(=O)(=O)O)C[C@@H](O)[C@]4(C)[C@H]3CC[C@]12C
5.82	C[C@@]12CCC(=O)c3coc(c31)C(=O)c1cc3c(cc12)C(=O)C=CC3=O [HELENAQUINONE]
